Data from publication PMC4838304, “Effective Design of Multifunctional Peptides by Combining Compatible Functions” (PLoS Computational Biology, 2016).
Ends that are not written are not given here.

Experiments:
[1] = test system: pheromone-signaling pathway (Fus1-eGFP) in MATa cells; test: Pheromone signaling assay, Fus1-GFP expression and shmoo phenotype; assay type: cell-based, Saccharomyces cerevisiae; conditions: BY4741 fus1::eGFP, 60 μM peptide (20 μM for α-factor), 3h
Procedure: Finally, the activity of the α-factor embedded in the peptides was evaluated by activation of the pheromone-signaling pathway in MATa cells of S. cerevisiae. We monitored the pheromone signaling activity by following the expression of the GFP-labeled Fus1 protein. Fus1 is among the proteins with the highest pheromone-induced expression and is required for cell-cell fusion during mating. […] The observed phenotype was consistent with the activation of signaling showing a mating protrusion, often called “shmoo” as well as the absence of budding due to inhibition of the Cdc28 cyclin [35, 36].
Fig 5 Pheromone activity. The pheromone signaling pathway is confirmed by the expression of Fus1-GFP, characteristic “shmoo” phenotype and the absence of budding observed in differential interference contrast (DIC) bright field. Concentrations were 20 μM for α-factor and 60 μM for all other peptides. The negative control was water without any peptide.
Pheromone signaling induction in Saccharomyces cerevisiae was measured by induction of eGFP fluorescence in a BY4741 strain containing the Fus1-eGFP construct in place of the wild type Fus1 (MATa his3Δ1 leu2Δ0 met15Δ0 ura3Δ0 fus1::eGFP HIS3MX6, obtained from the yeast GFP collection). The BY4741 fus1::eGFP strain was grown overnight in YPD to mid-log phase and diluted to 10^6 cells/mL. Samples were treated with the respective peptide concentrations and incubated for 3h before mixing 1:1 with low-diffusivity agarose suspended on a covered glass slide. Images were taken with an Olympus FV10 confocal microscope using a 60x objective with […]. Images were analyzed using Fiji (www.fiji.sc). The only modifications applied to the images were separation of the bright field and GFP channels, adjustment of brightness and contrast to 50% and addition of scale bars.

[2] = Circular dichroism, secondary structure content (CONTIN/LL); assay type: physicochemical; conditions: for Secondary Structure Random coil / Secondary Structure α-Helix / Secondary Structure β-Sheet: 0.3mg in 1mL, 20°C, far-UV CD, CONTIN/LL
Procedure: We studied the structural properties of the peptides in vitro, using circular dichroism (see Materials and Methods). The far-UV CD spectra for NLS-CE, NLS-α and NLS-α-CE in water matched the characteristics of a random coil conformation.
Circular dichroism spectra were recorded on a ChirascanTM CD Spectrometer (Applied Photophysics, UK) equipped with a peltier temperature controller. 0.3mg of each peptide was dissolved in 1mL of water or 50% aqueous trifluoroethanol and placed in quartz cuvettes of 0.1cm path length. Far-UV CD spectra were collected from 185 to 250 nm at 20°C. Spectra were averaged over 5 scans and the averaged blank spectra of solvents were subtracted. Ellipticity is reported as mean residue molar ellipticity and recorded in terms of molar elipticity [θ] (deg cm^2 dmol^−1). CONTIN/LL within the CDPro analysis software program was used to estimate the secondary structure content of the peptides.

[3] = test system: Escherichia coli strain DH5α; assay type: cell-based; conditions: 12 h
BY4741 yeast cells = test: Internalization assay in yeast, confocal microscopy; assay type: cell-based, Saccharomyces cerevisiae; conditions: TAMRA-labeled versions, 60 μM, BY4741, pictures at 0, 10 and 20 min
Excerpt: We first evaluated whether the designed peptides retained the activity of the templates. The presence of the NLS sequence may locate peptides in the nuclei of cells; for that to happen first the peptides have to be internalized. […] For yeast cells, confocal microscopy was used to evaluate CPP activity in our peptides (see Fig 2).
Fig 2 Designed peptides internalized into yeast cells. (A-F) Internalization assays in BY4741 yeast cells for peptide controls where Arg and Lys residues were replaced by Glu residues (A-C) and the original peptides (D-F). All peptides were used at 60 μM (final concentration) and labeled with the TAMRA fluorophore (see Table 1 and Materials and Methods for further details).
All 6 fluorogenic peptides (TAMRA-peptides, see Table 1) were prepared to 600μM in water as a 10X stock solution. Although all the peptides were apparently soluble in water, they all formed aggregates under the microscope. […] These samples were observed under a multi-photon confocal microscope (Olympus FV1000) and pictures were recorded at 0, 10 and 20 min after the peptide addition. […] Bright field images were chosen from the in-focus z-stack, whereas TAMRA images denote the average fluorescence across the entire z-stack to obtain the fluorescence inside the entire cell volume. Images were analyzed using Fiji (http://fiji.sc/Downloads#Fiji).

pGREG546 plasmid = test: Electrophoretic mobility shift assay (EMSA), DNA retention; assay type: binding; conditions: 1μg pGREG546, DNA to peptide charge ratio 1:1 or 1:4, 30 minutes
Excerpt: To test the ability of the designed peptides to bind nucleic acids, we evaluated by electrophoretic mobility shift assays (EMSAs) the retention of DNA by the designed peptides. Each EMSA was executed with peptide quantities that were multiples of the DNA to peptide charge ratio. A DNA to peptide charge ratio of 1:1 is represented by the number of positive charges of the peptide required to neutralize the negative charges of the DNA backbone. Retention in the gel is an indirect measure of the fraction of positive charges within the peptide participating in binding the DNA molecules. All EMSA assays were performed using the yeast plasmid pGREG546. As negative control, pGREG546 without any peptide was used, and as positive control the known DNA-binding cell penetrating peptide MPG was used. […] However, retention in the gel was observed when NLS was joined to any larger peptide fragment.
Fig 4 DNA binding. (A) Quantification of DNA retention obtained from three independent electrophoretic mobility shift assays. All measurements are shown and horizontal bars denote the sample mean. Representative gels are shown in (B-C).
1μg of pGREG546 plasmid was pre-incubated with the required quantity of each peptide to result in a 1:1 or 1:4 peptide charge to DNA charge ratio. Samples were incubated for 30 minutes and loaded on a 1% Agarose gel in SB buffer. DNA affinity was quantified by measuring the mean pixel intensity of the DNA bands with Fiji (http://fiji.sc) and normalizing to the intensity range between an empty spot on the gel and the intensity of the pGREG546 plasmid without any added peptide. Analysis scripts for the EMSA experiments as well as the raw data can be found with the distributed source code at http://bis.ifc.unam.mx/software/dcf.

## FRKWRRKPKKKRKVWWRKVKRRWHWLQLKPGQPMY [NLS-α-CE]
[1]
  pheromone signaling activity (Fus1-GFP expression, phenotype): partial shmoo-like phenotypes
[2]; 50% TFE
  Secondary Structure Random coil: 59%
  Secondary Structure α-Helix: 10%
  Secondary Structure β-Sheet: 31%
[2]; 50% TFE, CD spectra
  aggregation suggested by decrease in negative ellipticity: TFE promoted aggregation of the peptides
[2]; water
  Secondary Structure Random coil: 64%
  Secondary Structure α-Helix: 6%
  Secondary Structure β-Sheet: 30%
[3]
  E. coli MIC for 100% inhibition: 2 µM
BY4741 yeast cells
  internalization into yeast cells: quickly accumulate in the cell membrane and inside the yeast cells
pGREG546 plasmid
  DNA binding in EMSA, in words: effective DNA-binding activity

## KRRWRFVWMNPKKKRKVPPWPYLLWWHWLQLKPGQPMY [chimera]
[1]
  pheromone signaling activity (Fus1-GFP expression, phenotype): partial shmoo-like phenotypes
[2]; 50% TFE
  Secondary Structure Random coil: 48%
  Secondary Structure α-Helix: 24%
  Secondary Structure β-Sheet: 28%
[2]; water
  Secondary Structure Random coil: 59%
  Secondary Structure α-Helix: 8%
  Secondary Structure β-Sheet: 33%
[3]
  E. coli MIC for 100% inhibition: 22 µM
BY4741 yeast cells
  internalization into yeast cells: quickly accumulate in the cell membrane and inside the yeast cells
pGREG546 plasmid
  DNA binding in EMSA, in words: effective DNA-binding activity
